Experimental data as given in patent US12655116B2, “Substituted isophthalic acid diamides” (Bayer Aktiengesellschaft, priority 2020, dated 2026).

Tests used:
[1] = system: VIOTR; test: Pre-emergence herbicidal action against VIOTR; format: in vivo, Viola tricolor
Procedure, shortened: (§1)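 Visual rating at 3 weeks vs untreated pots; 0–100% scale, 100% = plants died. Treatment: aqueous WP/EC spray onto covering soil, 600–800 l/ha, 0.2% wetter, seeds in sandy loam.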

[2] = system: ALOMY; test: Pre-emergence herbicidal action against ALOMY; format: in vivo, Alopecurus myosuroides; conditions: 80 g/ha, pre-emergence, scored visually after 3 weeks vs untreated controls (100% = plants have died, 0% = like control plants)
Procedure, shortened: as §1

[3] = system: MATIN; test: Pre-emergence herbicidal action against MATIN; format: in vivo, Matricaria inodora; conditions: for pest or weed control at 20 g/ha / pest or weed control at 80 g/ha: Tripleurospermum inodorum, 504 h
Procedure, shortened: as §1

[4] = system: ECHCG; test: Pre-emergence herbicidal action against ECHCG; format: in vivo, Echinochloa crus-galli; conditions: 80 g/ha
Procedure, shortened: as §1

[5] = system: POLCO; test: Pre-emergence herbicidal action against POLCO; format: in vivo, Polygonum convolvulus; conditions: dosage 80 g/ha; for pest or weed control at 80 g/ha: Fallopia convolvulus, 504 h
Excerpt: Seeds of monocotyledonous and dicotyledonous weed plants and crop plants are laid out in sandy loam soil in wood-fiber pots and covered with soil. The compounds of the invention, formulated in the form of wettable powders (WP) or as emulsion concentrates (EC), are then applied to the surface of the covering soil in the form of an aqueous suspension or emulsion at a water application rate equivalent to 600 to 800 l/ha, with addition of 0.2% wetting agent. After the treatment, the pots are placed in a greenhouse and kept under good growth conditions for the trial plants. The damage to the test plants is scored visually after a test period of 3 weeks by comparison with untreated controls (herbicidal activity in percent (%): 100% activity=the plants have died, 0% activity=like control plants). […] The tables below illustrate, in an illustrative manner, the post-emergence herbicidal action of the compounds of the invention, the herbicidal activity being stated in percent.

[6] = system: AMARE; test: Pre-emergence herbicidal action against AMARE; format: in vivo, Amaranthus retroflexus; conditions: for pest or weed control at 20 g/ha / pest or weed control at 80 g/ha: Amaranthus retroflexus, 504 h
Procedure, shortened: as §1

[7] = system: ABUTH; test: Post-emergence herbicidal action against ABUTH; format: in vivo, Abutilon theophrasti; conditions: visual assessment about 3 weeks after treatment vs untreated controls
Procedure, shortened: (§2)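 Greenhouse pot plants in sandy loam were sprayed at the one-leaf stage, 2 to 3 weeks after sowing, with WP or EC formulations as aqueous suspension or emulsion (600 to 800 l/ha water, 0.2% wetting agent). About 3 weeks later, damage was scored visually against untreated controls as % action (100% = dead, 0% = like control).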

[8] = system: ECHCG; test: Post-emergence herbicidal action against ECHCG; format: in vivo, Echinochloa crus-galli
Procedure, shortened: as §2

[9] = system: VIOTR; test: Post-emergence herbicidal action against VIOTR; format: in vivo, Viola tricolor
Procedure, shortened: as §2

[10] = system: SETVI; test: Pre-emergence herbicidal action against SETVI; format: in vivo, Setaria viridis
Procedure, shortened: as §1

[11] = system: AMARE; test: Post-emergence herbicidal action against AMARE; format: in vivo, Amaranthus retroflexus; conditions: 20 g/ha, visual assessment about 3 weeks after treatment, 100% = plants have died, 0% = like control plants; for pest or weed control at 20 g/ha: Amaranthus retroflexus, 504 h
Procedure, shortened: as §2

[12] = system: ABUTH; test: Pre-emergence herbicidal action against ABUTH; format: in vivo, Abutilon theophrasti; conditions: for pest or weed control at 80 g/ha / pest or weed control at 20 g/ha: Abutilon theophrasti, 504 h; for pest or weed control at 20 g/ha: read-out: Pre-emergence action against ABUTH (herbicidal activity in percent)
Procedure, shortened: as §1

[13] = system: DIGSA; test: Pre-emergence herbicidal action against DIGSA; format: in vivo, Digitaria sanguinalis
Procedure, shortened: as §1

[14] = system: PHBPU; test: Pre-emergence herbicidal action against PHBPU; format: in vivo, Pharbitis purpurea; conditions: dosage 80 g/ha
Procedure, shortened: as §1

[15] = system: VERPE; test: Pre-emergence herbicidal action against VERPE; format: in vivo, Veronica persica; conditions: Veronica persica, 504 h; for pest or weed control at 80 g/ha: dosage 80 g/ha
Procedure, shortened: as §1

[16] = system: MATIN; test: Post-emergence herbicidal action against MATIN; format: in vivo, Matricaria inodora; conditions: Tripleurospermum inodorum, 504 h
Procedure, shortened: as §2

[17] = system: AVEFA; test: Pre-emergence herbicidal action against AVEFA; format: in vivo, Avena fatua; conditions: Avena fatua, 504 h, pre-emergence
Procedure, shortened: as §1

[18] = system: VERPE; test: Post-emergence herbicidal action against VERPE; format: in vivo, Veronica persica; conditions: Veronica persica, 504 h
Procedure, shortened: as §2

[19] = system: PHBPU; test: Post-emergence herbicidal action against PHBPU; format: in vivo, Pharbitis purpurea; conditions: Ipomoea purpurea, 504 h
Procedure, shortened: as §2

[20] = system: SETVI; test: Post-emergence herbicidal action against SETVI; format: in vivo, Setaria viridis; conditions: Setaria viridis, 504 h
Procedure, shortened: as §2

[21] = system: ALOMY; test: Post-emergence herbicidal action against ALOMY; format: in vivo, Alopecurus myosuroides; conditions: Alopecurus myosuroides, 504 h, visual assessment about 3 weeks after treatment vs untreated controls
Procedure, shortened: as §2

[22] = 20 g/ha, scored visually after 3 weeks vs untreated controls, 100% = plants have died, 0% = like control plants
[23] = 80 g/ha, scored visually after 3 weeks vs untreated controls (100% = plants have died, 0% = like control plants)
[24] = dosage 20 g/ha, scored visually after 3 weeks vs untreated controls, 100% = plants have died, 0% = like control plants
[25] = 80 g/ha, scored visually after 3 weeks vs untreated controls, 100% = plants have died, 0% = like control plants

## Cn1nnnc1NC(=O)c1ccc(C(F)(F)F)c(C(=O)NC2CCC2)c1Cl [Example 1-146]
[1]; dosage 80 g/ha
  Pre-emergence action against VIOTR in %: 100%
[2]
  Pre-emergence action against ALOMY (herbicidal activity): 90%
[3]; dosage 20 g/ha
  Pre-emergence action against MATIN in %: 100%
[3]; dosage 80 g/ha
  Pre-emergence action against MATIN in %: 100%
[4]
  Pre-emergence action against ECHCG in %: 100%
[5]
  Pre-emergence action against POLCO in %: 80%
[6]; [22]
  Pre-emergence action against AMARE in %: 100%
[6]; [23]
  Pre-emergence action against AMARE in %: 100%
[7]; dosage 20 g/ha
  Post-emergence action against ABUTH in %: 80%
[8]; dosage 20 g/ha
  Post-emergence action against ECHCG in %: 80%
[9]; 5 g/ha
  Post-emergence action against VIOTR in %: 80%
[9]; 20 g/ha
  Post-emergence action against VIOTR in %: 100%
[10]; dosage 80 g/ha
  Pre-emergence action against SETVI in %: 80%
[11]
  Post-emergence action at 20 g/ha against AMARE in %: 100%
[12]; [23]
  Pre-emergence action against ABUTH (herbicidal activity): 100%
[12]; [24]
  Pre-emergence action against ABUTH (herbicidal activity in percent): 100%
[13]; dosage 20 g/ha
  Pre-emergence action against DIGSA in %: 100%
[13]; dosage 80 g/ha
  Pre-emergence action against DIGSA in %: 100%
[14]
  Pre-emergence action against PHBPU in %: 80%

## Cn1nnnc1NC(=O)c1ccc(C(F)F)c(C(=O)Nc2ccccc2)c1Cl [Example 1-161]
[15]; dosage 20 g/ha
  pest or weed control at 20 g/ha: 80%
[15]
  pest or weed control at 80 g/ha: 90%
[3]; dosage 20 g/ha
  pest or weed control at 20 g/ha: 90%
[3]; dosage 80 g/ha
  pest or weed control at 80 g/ha: 100%
[5]
  pest or weed control at 80 g/ha: 80%
[6]; [22]
  pest or weed control at 20 g/ha: 100%
[6]; [25]
  pest or weed control at 80 g/ha: 100%
[11]
  pest or weed control at 20 g/ha: 90%
[12]; [23]
  pest or weed control at 80 g/ha: 90%
[12]; [24]
  pest or weed control at 20 g/ha: 80%
[14]; Ipomoea purpurea, 504 h
  pest or weed control at 80 g/ha: 80%

## Cc1c(C(=O)Nc2nnnn2C)ccc(C(F)F)c1C(=O)NC(C)C [Example 1-346]
[15]
  pest or weed control at 80 g/ha: 80%
[1]; Viola tricolor, 504 h, dosage 20 g/ha
  pest or weed control at 20 g/ha: 80%
[1]; Viola tricolor, 504 h, dosage 80 g/ha
  pest or weed control at 80 g/ha: 100%
[2]; Alopecurus myosuroides, 504 h
  pest or weed control at 80 g/ha: 90%
[3]; dosage 20 g/ha
  pest or weed control at 20 g/ha: 90%
[3]; dosage 80 g/ha
  pest or weed control at 80 g/ha: 100%
[4]; Echinochloa crus-galli, 504 h
  pest or weed control at 80 g/ha: 90%
[5]
  pest or weed control at 80 g/ha: 80%
[16]; dosage 5 g/ha
  pest or weed control at 5 g/ha: 80%
[16]; dosage 20 g/ha
  pest or weed control at 20 g/ha: 90%
[6]; [22]
  pest or weed control at 20 g/ha: 100%
[6]; [25]
  pest or weed control at 80 g/ha: 100%
[17]; 80 g/ha
  pest or weed control at 80 g/ha: 80%
[17]; 20 g/ha, scored visually after 3 weeks, 100% = plants have died, 0% = like control plants
  pest or weed control at 20 g/ha: 80%
[7]; Abutilon theophrasti, 504 h, dosage 5 g/ha
  pest or weed control at 5 g/ha: 80%
[7]; Abutilon theophrasti, 504 h, dosage 20 g/ha
  pest or weed control at 20 g/ha: 100%
[8]; Echinochloa crus-galli, 504 h, dosage 5 g/ha
  pest or weed control at 5 g/ha: 80%
[8]; Echinochloa crus-galli, 504 h, dosage 20 g/ha
  pest or weed control at 20 g/ha: 90%
[18]; 5 g/ha
  pest or weed control at 5 g/ha: 80%
[18]; 20 g/ha
  pest or weed control at 20 g/ha: 80%
[19]; dosage 5 g/ha
  pest or weed control at 5 g/ha: 80%
[19]; dosage 20 g/ha
  pest or weed control at 20 g/ha: 90%
[9]; Viola tricolor, 504 h, 5 g/ha
  pest or weed control at 5 g/ha: 90%
[9]; Viola tricolor, 504 h, 20 g/ha
  pest or weed control at 20 g/ha: 100%
[20]; dosage 5 g/ha
  pest or weed control at 5 g/ha: 100%
[20]; dosage 20 g/ha
  pest or weed control at 20 g/ha: 100%
[10]; Setaria viridis, 504 h, dosage 20 g/ha
  pest or weed control at 20 g/ha: 100%
[10]; Setaria viridis, 504 h, dosage 80 g/ha
  pest or weed control at 80 g/ha: 100%
[11]
  pest or weed control at 20 g/ha: 100%
[12]; [23]
  pest or weed control at 80 g/ha: 100%
[12]; [24]
  pest or weed control at 20 g/ha: 90%
[21]; dosage 5 g/ha
  pest or weed control at 5 g/ha: 80%
[21]; dosage 20 g/ha
  pest or weed control at 20 g/ha: 90%
